The values that follow are results of earlier work, collected in the CATMoS acute toxicity set (Mansouri et al. 2021).

Values joined by “and” are separate entries in the source; they are usually repeats but may differ in a detail not shown here. Identical values can stand only once.

What is called LD50 is the dose expected to kill half of the subjects tested.

This data set is described as follows: rat acute oral toxicity. To be noted: in vivo.
Take `O=C(O)c1c(O)c(O)cc2ccccc12`: the LD50 is 24500 mg/kg.

Consider `CCSP(SCC)SCC`, for which the 50% lethal dose (LD50) is 355 mg/kg.

For the molecule `OCCOCCN1CCN(CCOC(c2ccccc2)c2ccc(Cl)cc2)CC1` (stereo unspecified), the LD50 is 800 mg/kg.

For `Cc1c(Nc2ccccc2C(=O)O)ccc(O)c1Cl`, the LD50 is 1850 mg/kg.

On to `COP(=O)(OC)SCN1C(=O)c2ccccc2C1=O`, for which the LD50 was 50 mg/kg.

As for `COP(=O)(OC)SC(C)C`, the LD50 was 108 mg/kg.

For the molecule `CCOC(=O)/C=C1/SC(N2CCCCC2)C(=O)N1C` (stereo unspecified), the median lethal dose (LD50) was 10200 mg/kg.

Consider `CN1CCN=C(c2ccccc2)c2cc(Cl)ccc21`, for which the LD50 was 900 mg/kg.

As for `c1ccc(C2CCCCC2)c(OCC2CNCCO2)c1` (stereo unspecified), the 50% lethal dose (LD50) is 1120 mg/kg.

Take `CCN(CC)c1ccccc1`: the 50% lethal dose (LD50) was 782 mg/kg.

Regarding `CC(Oc1ccc(Oc2nc3ccc(Cl)cc3o2)cc1)C(=O)O` (stereo unspecified), the LD50 was 2360 mg/kg.

Consider `Cc1noc(NS(=O)(=O)c2ccc(N)cc2)c1C`, for which the LD50 is 10000 mg/kg.

In the case of `O=C(NC1CCSC1=O)c1cccnc1` (stereo unspecified), the LD50 is 4500 mg/kg.

Consider `CCc1ccc(Oc2ccc(C)cc2CC(=O)O)c(Cl)c1`, for which the median lethal dose (LD50) was 2850 mg/kg.

In the case of `CCC=CCC=CCC=CCC=CCC=CCC=CCCC(=O)O`, the LD50 is 10000 mg/kg.

For `Fc1c(Cl)c(Cl)c(Cl)c2[nH]c(C(F)(F)F)nc12`, the LD50 is 0.847 mg/kg.

Turning to `N#Cc1ccc2c(c1)N(CCCN1CCC(O)CC1)c1ccccc1S2`, the LD50 was 395 mg/kg.

Turning to `CC(=O)Oc1c([N+](=O)[O-])cc([N+](=O)[O-])cc1C(C)(C)C`, the median lethal dose (LD50) is 62 mg/kg.

Consider `C=CC(=O)OCCN(CC)CC`, for which the 50% lethal dose (LD50) was 770 mg/kg.

Consider `CN=C(O)O/N=C1\COCCS1`, for which the 50% lethal dose (LD50) is 37 mg/kg.

In the case of `CC(=O)CCCCn1c(=O)c2c(ncn2C)n(C)c1=O`, the 50% lethal dose (LD50) was 1170 mg/kg.

For `CC(C(=O)OCCOCCO)c1ccc2c(c1)C(=O)Cc1ccccc1O2` (stereo unspecified), the 50% lethal dose (LD50) was 260 mg/kg.

In the case of `CO[Si](C)(CCCNCCN)OC`, the LD50 is 200 mg/kg.

With `CC(C)=CCN(CC=C(C)C)CCC(C(N)=O)c1cccc2ccccc12` (stereo unspecified), the LD50 is 353 mg/kg.

For `CSCc1cnc(C)c(O)c1CO`, the median lethal dose (LD50) was 4300 mg/kg.

Turning to `CCCCCCCCP(=O)(O)O`, the median lethal dose (LD50) is 1890 mg/kg.

As for `Cc1ccc(S(=O)(=O)NCl)cc1`, the 50% lethal dose (LD50) is 935 mg/kg.

As to `CNC(=O)ON=CC1(C)SC(C)C(C)S1` (stereo unspecified), the LD50 is 2.5 mg/kg.

For `OC(CCl)COCCCCCOCC(O)CCl` (stereo unspecified), the median lethal dose (LD50) is 2250 mg/kg.

For the molecule `CCN(CC)CCN`, the LD50 is 2830 mg/kg.

Turning to `O[C@@H](c1cc(C(F)(F)F)nc2c(C(F)(F)F)cccc12)[C@H]1CCCCN1`, the LD50 was 880 mg/kg.

With `CCN1CCCc2ccccc21`, the LD50 is 1780 mg/kg.

For the molecule `CC(=S)Nc1ccccc1`, the 50% lethal dose (LD50) is 2640 mg/kg.

On to `Cc1ncsc1C`, for which the LD50 was 960 mg/kg.

Consider `CCOP(=O)(OCC)SCC(C)(SCC)SCC`, for which the LD50 is 15 mg/kg.

On to `CCCCN1C(=O)c2ccc([N+](=O)[O-])cc2C1=O`, for which the 50% lethal dose (LD50) was 1340 mg/kg.

Take `CN1CCC(OC2c3ccccc3CCc3ccccc32)CC1`: the 50% lethal dose (LD50) was 1500 mg/kg.

With `C=CCNc1nc(NCC=C)nc(N(CCCCCCN(c2nc(NCC=C)nc(NCC=C)n2)C2CC(C)(C)NC(C)(C)C2)C2CC(C)(C)NC(C)(C)C2)n1`, the LD50 is 4010 mg/kg.

Regarding `CCOP(=S)(OCC)SCC(N)=O`, the 50% lethal dose (LD50) was 10 mg/kg.

With `O=C1c2ccccc2-c2ccc3c4c(ccc1c24)-c1c(Br)ccc(Br)c1C3=O`, the LD50 was 3570 mg/kg.

Take `COc1ccc2c(c1)OC(C)(C)C(c1ccccc1)=C2c1ccc(OCCN2CCCC2)cc1`: the LD50 was 150 mg/kg.

With `Cc1ccc2c(c1)c(-c1ccccc1)cn2N(CCN(C)C)CCN(C)C`, the LD50 is 980 mg/kg.

As to `COc1ccc(C(=O)CCC(=O)O)c2c(C)c(C)oc12`, the LD50 is 2180 mg/kg.

As for `CCCC(=O)O[C@]1(C(=O)COC(=O)CC)CC[C@H]2[C@@H]3CCC4=CC(=O)CC[C@]4(C)[C@H]3[C@@H](O)C[C@@]21C`, the 50% lethal dose (LD50) is 5120 mg/kg.

In the case of `CC(=O)ON(C(=O)OC(C)C)c1ccccc1`, the 50% lethal dose (LD50) was 3400 mg/kg.

Turning to `O=C1CCc2cc(C=CCN3CCN(c4ccc(Cl)cc4)CC3)ccc2N1`, the LD50 was 500 mg/kg.

Turning to `NC(=O)N1CCC(c2ccccc2)CC1`, the LD50 is 790 mg/kg.

In the case of `COc1cc(Cc2cnc(N)nc2N)cc(OC)c1N(C)C`, the median lethal dose (LD50) was 1400 mg/kg.

Consider `CNCCCN1c2ccccc2CCc2ccccc21`, for which the LD50 was 375 mg/kg and 871 mg/kg.

As for `Cc1cccc(I)c1`, the LD50 is 2300 mg/kg.

As for `CCOC(=O)COc1ccc2c(C)c(CCN(CC)CC)c(=O)oc2c1`, the median lethal dose (LD50) is 8000 mg/kg.

With `CC(c1ccc(Cl)cc1)c1ccc(Cl)cc1`, the LD50 was 1000 mg/kg.

Take `c1ccc2[nH]c(-c3cscn3)nc2c1`: the 50% lethal dose (LD50) is 3600 mg/kg and 3100 mg/kg.

`CCC(C)N(C(=O)c1c(Cl)cccc1Cl)C(C)CC` (stereo unspecified): the LD50 is 1450 mg/kg.

On to `Oc1ccccc1-c1ccccc1`, for which the LD50 is 656 mg/kg and 1050 mg/kg.

`CC(C)C1C=C2CC[C@H]3[C@](C)(CO)CCC[C@]3(C)[C@H]2CC1` (stereo partly specified): the LD50 was 70000 mg/kg.

Regarding `CC(N)=[Se]`, the LD50 was 10 mg/kg.

Turning to `Cc1ccccc1N=NN(C)C`, the LD50 was 350 mg/kg.

For `C=C(C#N)C(=O)OC`, the LD50 is 1600 mg/kg.

As to `Cc1cc(CC(=O)O)n(C)c1C(=O)c1ccc(Cl)cc1`, the LD50 was 27 mg/kg.

As to `COP(=S)(OC)Oc1ccc(S(C)=O)c(C)c1` (stereo unspecified), the LD50 was 125 mg/kg.
